The text below walks through data of patent US11957127B1, “1,3-bis(naphthalen-2-yloxy)propan-2-one as an eco-friendly insecticidal agent against Spodoptera littoralis (boisd.)” (priority 2023, dated 2024).

The subject of this series is Spodoptera littoralis. Kind of series: Insecticidal bioassay screening (castor leaf dip, larval mortality). Format: in vivo. As to conditions: for Toxic ratio: 72 h, fenoxycarb's LC50 / compound's LC50 × 100. As for the experimental part: Five concentrations (200, 100, 50, 25, 12.5 ppm) were designed for this synthetic compound and the reference fenoxycarb compound as the dynamic ingredients based on ppm via diluting the commercial formulation.
In this experiment, castor leaves are immersed in each of the previously prepared concentrations of the components for 10 seconds and then left to dry for 60 minutes. Larvae of the second and fourth instars of each checked strain are prepared with treated leaves in gauze-covered glass containers for 72 hrs. An untreated control is made in which leaves are dipped in triton x-100 and distilled water only. Then the preserved leaves were removed & fresh, untreated leaves were provided for 72 hours. Three replicates (10 larvae each) were checked for each concentration. Daily inspection was carried out for all treatments and mortality percentages were recorded 3 days (72 hours) after treatment. The average mortality percentage was corrected employing Abbott's formula. The corrected mortality rate for each of the previously synthesized compounds is statistically calculated according to Finney (1970). Through this rate, the corresponding concentration test lines (LDP lines) are assessed. Fifty and ninety percent mortality are determined, and the regression values for the checked products were previously evaluated.

Where [1] appears, read: 2nd instar larvae of S. littoralis, after 72 h of treatment.
Where [2] appears, read: 4th instar larvae of S. littoralis, after 72 h of treatment.

≈ marks a conversion by molar mass, not a printed value. Read-outs that look alike come from different tables or passages of the source.

As a reminder, the LC50 is the concentration that kills 50% of the test population.

In the case of `O=C(COc1ccc2ccccc2c1)COc1ccc2ccccc2c1` [Compound 4, 1,3-bis(naphthalen-2-yloxy)propan-2-one], the LC50 runs as follows: under setting [1], 38.69 ppm; (2nd instar larvae of S. littoralis, after 72 h of treatment, listed as 1,3-bis(naphthalen-2-yloxy)propan-2-one) “about 38.69 ppm”; under setting [2], 86.921 ppm; (4th instar larvae of S. littoralis, after 72 h of treatment, listed as 1,3-bis(naphthalen-2-yloxy)propan-2-one) “about 86.921 ppm”; (foliar, against Spodoptera littoralis under laboratory conditions (instar not given), read-out: LC50) 38.7 µg/mL (≈ 113 µM). Besides, the Toxic ratio was 7.0 (2nd instar larvae) and 49.7 (4th instar larvae). Also, for the setting “compared with reference insecticide fenoxycarb”, the “activity against Spodoptera littoralis (in words)” value is given as “active”.

With `CCOC(=O)NCCOc1ccc(Oc2ccccc2)cc1` [Fenoxycarb, reference compound], the LC50 by setting is: under setting [1], 2.73 ppm; under setting [2], 43.231 ppm; (Spodoptera littoralis, foliar) 2.73 µg/mL (≈ 9.06 µM). For the same molecule, the Toxic ratio (2nd instar larvae) worked out at 100 and the Toxic ratio (4th instar larvae) is given as 1.
